What was measured:
[1] = target: Cyclin-Y/Cyclin-dependent kinase 16 (Homo sapiens) (UniProt Q00536+Q8ND76); test: Inhibition of CDK16/CyclinY (unknown origin) at 200 nM relative to control; values are per cent of control
Cytochrome P450 3A4 = Cytochrome P450 3A4 (Homo sapiens, UniProt P08684); test: Inhibition of CYP3A4 (unknown origin); format: ADME
[2] = target: Mitogen-activated protein kinase 15 (Homo sapiens, UniProt Q8TD08); test: Inhibition of Erk8 (unknown origin)
[3] = AUC(0 to t) in mouse at 1 mg/kg, iv; format: ADME, organism-based; conditions: in vivo
[4] = AUC(0 to t) in rat at 1 mg/kg, iv; format: ADME, organism-based; conditions: in vivo
[5] = AUC (0 to t) in human OVCAR-3 cells xenografted in female Balb/c nude mouse plasma at 10 mg/kg, po administered once daily; format: ADME, organism-based
Cytochrome P450 1A2 = Cytochrome P450 1A2 (Homo sapiens, UniProt P05177); test: Inhibition of CYP1A2 (unknown origin); format: ADME
Cytochrome P450 1A2, sequence (P05177 whole entry): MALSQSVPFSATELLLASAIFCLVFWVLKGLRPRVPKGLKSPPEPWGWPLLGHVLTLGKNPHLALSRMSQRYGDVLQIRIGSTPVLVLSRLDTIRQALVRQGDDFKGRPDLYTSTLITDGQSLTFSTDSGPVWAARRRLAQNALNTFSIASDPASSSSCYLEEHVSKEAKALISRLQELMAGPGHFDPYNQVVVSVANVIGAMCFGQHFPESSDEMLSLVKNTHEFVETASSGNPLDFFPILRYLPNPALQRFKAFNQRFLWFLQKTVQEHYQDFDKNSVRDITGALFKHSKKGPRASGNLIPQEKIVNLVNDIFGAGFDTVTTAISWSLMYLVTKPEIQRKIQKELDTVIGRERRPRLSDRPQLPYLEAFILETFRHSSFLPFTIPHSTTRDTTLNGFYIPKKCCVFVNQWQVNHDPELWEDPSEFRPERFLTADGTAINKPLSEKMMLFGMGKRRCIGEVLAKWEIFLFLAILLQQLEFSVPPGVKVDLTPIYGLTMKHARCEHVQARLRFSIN

[6] = target: Serine/threonine-protein kinase D1 (Homo sapiens, UniProt Q15139); test: Inhibition of PRKD1 (unknown origin)
OVCAR-3 [7] = test: Antitumor activity against human OVCAR-3 cells xenografted in female Balb/c nude mouse assessed as tumor growth inhibition at 2 mg/kg, po administered once daily and measured on day 22; format: functional; conditions: OVCAR-3, 528 h, time 22 day, read-out: TGI
[8] = Drug concentration in rat plasma at 5 mg/kg, po measured after 0.5 hrs; format: ADME, organism-based
[9] = Half life in rat at 1 mg/kg, iv; format: ADME, organism-based; conditions: in vivo
[10] = AUC(0 to t) in dog at 0.2 mg/kg, iv; format: ADME, organism-based, Canis lupus familiaris; conditions: in vivo
[11] = Half life in human OVCAR-3 cells xenografted in female Balb/c nude mouse plasma at 2 mg/kg, po administered once daily; format: ADME, organism-based
Cytochrome P450 2D6 = Cytochrome P450 2D6 (Homo sapiens, UniProt P10635); test: Inhibition of CYP2D6 (unknown origin); format: ADME
[12] = Drug concentration in rat small intestine at 5 mg/kg, po measured after 0.5 hrs; format: ADME, organism-based; conditions: read-out: Ct
[13] = AUC(0 to 24 hrs) in Sprague-Dawley rat at 100 mg/kg, po; format: ADME, organism-based; conditions: in vivo
[14] = Oral bioavailability in mouse at 5 mg/kg; format: ADME, organism-based; conditions: in vivo
[15] = Oral bioavailability in female Balb/c nude mouse at 5 mg/kg; format: ADME, organism-based; conditions: in vivo
HCC70 [16] = test: Antitumor activity against human HCC70 cells xenografted in female nu/nu mouse assessed as tumor growth inhibition at 1 mg/kg, po administered once daily and measured for 4 weeks; format: functional; conditions: HCC70, 672 h, read-out: TGI
[17] = Half life in mouse at 5 mg/kg, po; format: ADME, organism-based; conditions: in vivo
[18] = target: Cyclin-Y/Cyclin-dependent kinase 16 (Homo sapiens, UniProt Q00536); test: Inhibition of CDK16/CyclinY (unknown origin); format: protein-complex assay
[19] = Cmax in Sprague-Dawley rat at 300 mg/kg, po; format: ADME, organism-based; conditions: in vivo
[20] = Cmax in human OVCAR-3 cells xenografted in female Balb/c nude mouse plasma at 2 mg/kg, po administered once daily; format: ADME, organism-based
[21] = target: Serine/threonine-protein kinase TAO1 (Homo sapiens) (UniProt Q7L7X3); test: Inhibition of TAOK1 (unknown origin) at 200 nM relative to control; values are per cent of control
Serine/threonine-protein kinase TAO1 (Homo sapiens), sequence (Q7L7X3 whole entry): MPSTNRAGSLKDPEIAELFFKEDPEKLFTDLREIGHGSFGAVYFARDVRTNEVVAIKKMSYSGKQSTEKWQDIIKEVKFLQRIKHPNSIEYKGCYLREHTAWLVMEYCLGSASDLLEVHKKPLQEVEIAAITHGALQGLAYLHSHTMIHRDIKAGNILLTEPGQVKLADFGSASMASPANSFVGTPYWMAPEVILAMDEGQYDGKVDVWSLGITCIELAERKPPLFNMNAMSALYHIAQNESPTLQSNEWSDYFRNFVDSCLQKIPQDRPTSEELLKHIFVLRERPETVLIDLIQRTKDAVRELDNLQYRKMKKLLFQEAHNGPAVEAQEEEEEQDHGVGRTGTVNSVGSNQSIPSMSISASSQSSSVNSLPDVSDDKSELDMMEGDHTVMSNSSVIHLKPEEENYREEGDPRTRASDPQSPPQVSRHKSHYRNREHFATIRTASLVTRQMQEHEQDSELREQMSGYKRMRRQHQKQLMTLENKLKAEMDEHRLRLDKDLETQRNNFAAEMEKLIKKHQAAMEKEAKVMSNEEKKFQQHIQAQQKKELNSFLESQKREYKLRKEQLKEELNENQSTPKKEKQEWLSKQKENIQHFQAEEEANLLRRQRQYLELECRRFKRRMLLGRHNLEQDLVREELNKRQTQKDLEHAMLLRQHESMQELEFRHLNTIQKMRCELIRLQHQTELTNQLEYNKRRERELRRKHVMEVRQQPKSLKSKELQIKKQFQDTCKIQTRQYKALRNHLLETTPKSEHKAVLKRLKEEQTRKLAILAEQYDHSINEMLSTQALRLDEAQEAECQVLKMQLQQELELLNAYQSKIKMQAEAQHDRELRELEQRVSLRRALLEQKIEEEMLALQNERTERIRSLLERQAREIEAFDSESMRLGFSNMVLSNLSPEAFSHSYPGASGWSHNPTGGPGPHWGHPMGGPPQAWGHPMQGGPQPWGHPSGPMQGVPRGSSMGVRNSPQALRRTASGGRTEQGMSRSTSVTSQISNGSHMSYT

[22] = target: Cyclin-dependent kinase 9 (Homo sapiens, UniProt P50750); test: Inhibition of CDK9 (unknown origin)
[23] = AUC (0 to t) in human OVCAR-3 cells xenografted in female Balb/c nude mouse plasma at 2 mg/kg, po administered once daily; format: ADME, organism-based
[24] = target: Ribosomal protein S6 kinase alpha-3 (Homo sapiens, UniProt P51812); test: Inhibition of RSK2 (unknown origin)
[25] = Half life in dog at 2 mg/kg, po; format: ADME, organism-based, Canis lupus familiaris; conditions: in vivo
[26] = Cmax in mouse at 5 mg/kg, po; format: ADME, organism-based; conditions: in vivo
[27] = Half life in female Balb/c nude mouse at 5 mg/kg, po; format: ADME, organism-based; conditions: in vivo
[28] = target: Cyclin-dependent kinase 7/ cyclin H (Homo sapiens, UniProt P50613); test: Binding affinity to CDK7/CyclinH (unknown origin) assessed as dissociation constant by SPR assay; format: protein-complex assay
Cyclin-dependent kinase 7/ cyclin H, sequence (P51946 whole entry): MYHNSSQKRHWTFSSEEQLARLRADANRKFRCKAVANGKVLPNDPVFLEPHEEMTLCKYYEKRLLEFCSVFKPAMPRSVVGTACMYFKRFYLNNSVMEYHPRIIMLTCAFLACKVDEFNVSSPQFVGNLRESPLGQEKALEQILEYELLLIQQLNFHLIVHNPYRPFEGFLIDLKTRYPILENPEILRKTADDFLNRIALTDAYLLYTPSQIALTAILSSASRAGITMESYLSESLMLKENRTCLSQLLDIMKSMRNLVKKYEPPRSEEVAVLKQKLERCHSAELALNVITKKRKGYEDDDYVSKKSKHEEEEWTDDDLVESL
Cyclin-dependent kinase 7/ cyclin H, sequence (P50613 whole entry): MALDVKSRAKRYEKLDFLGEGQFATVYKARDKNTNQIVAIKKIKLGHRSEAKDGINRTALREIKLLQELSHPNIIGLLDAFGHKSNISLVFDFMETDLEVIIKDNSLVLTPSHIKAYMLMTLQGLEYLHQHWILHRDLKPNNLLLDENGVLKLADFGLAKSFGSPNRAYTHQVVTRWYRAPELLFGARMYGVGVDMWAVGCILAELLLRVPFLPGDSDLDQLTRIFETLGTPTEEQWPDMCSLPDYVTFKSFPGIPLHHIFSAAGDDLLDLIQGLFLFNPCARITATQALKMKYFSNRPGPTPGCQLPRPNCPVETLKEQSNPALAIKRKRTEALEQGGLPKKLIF

[29] = target: Serine/threonine-protein kinase D2 (Homo sapiens, UniProt Q9BZL6); test: Inhibition of PRKD2 (unknown origin)
Serine/threonine-protein kinase D2, sequence (Q9BZL6 whole entry): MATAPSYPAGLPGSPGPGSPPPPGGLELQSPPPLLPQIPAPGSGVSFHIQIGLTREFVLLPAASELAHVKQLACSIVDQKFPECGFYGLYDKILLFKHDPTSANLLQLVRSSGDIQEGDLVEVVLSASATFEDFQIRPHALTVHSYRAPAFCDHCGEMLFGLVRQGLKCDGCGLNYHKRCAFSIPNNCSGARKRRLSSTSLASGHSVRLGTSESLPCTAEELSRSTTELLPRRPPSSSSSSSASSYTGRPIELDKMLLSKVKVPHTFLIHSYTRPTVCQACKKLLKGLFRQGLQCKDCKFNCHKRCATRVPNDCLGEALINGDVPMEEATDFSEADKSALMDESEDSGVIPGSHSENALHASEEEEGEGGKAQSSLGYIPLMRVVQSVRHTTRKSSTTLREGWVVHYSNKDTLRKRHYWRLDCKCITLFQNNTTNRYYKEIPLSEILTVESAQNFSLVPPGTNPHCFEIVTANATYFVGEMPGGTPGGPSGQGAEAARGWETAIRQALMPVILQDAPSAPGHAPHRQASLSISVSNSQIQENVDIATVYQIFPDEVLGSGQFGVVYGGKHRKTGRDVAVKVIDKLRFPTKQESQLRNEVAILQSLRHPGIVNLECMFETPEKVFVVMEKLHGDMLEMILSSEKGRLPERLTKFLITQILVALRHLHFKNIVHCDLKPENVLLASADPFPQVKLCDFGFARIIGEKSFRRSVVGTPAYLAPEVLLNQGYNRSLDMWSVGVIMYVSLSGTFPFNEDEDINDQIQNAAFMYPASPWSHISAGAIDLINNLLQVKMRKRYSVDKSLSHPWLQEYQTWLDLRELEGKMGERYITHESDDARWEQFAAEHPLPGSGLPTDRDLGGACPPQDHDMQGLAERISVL

[30] = Cmax in human OVCAR-3 cells xenografted in female Balb/c nude mouse plasma at 10 mg/kg, po administered once daily; format: ADME, organism-based
[31] = Cmax in dog at 2 mg/kg, po; format: ADME, organism-based, Canis lupus familiaris; conditions: in vivo
[32] = AUC(0 to t) in human HCC70 cells xenografted in female nu/nu mouse plasma at 3 mg/kg, po administered once daily; format: ADME, organism-based
[33] = Drug concentration in rat plasma at 5 mg/kg, po measured after 2 hrs; format: ADME, organism-based
[34] = Half life in dog at 0.2 mg/kg, iv; format: ADME, organism-based, Canis lupus familiaris; conditions: in vivo
[35] = AUC(0 to t) in dog at 2 mg/kg, po; format: ADME, organism-based, Canis lupus familiaris; conditions: in vivo
[36] = Plasma protein binding in human assessed as unbound fraction; format: ADME, cell-free
[37] = Metabolic stability in human liver microsomes assessed as intrinsic clearance; format: ADME, Microsome; conditions: read-out: CLH
HCC70 [38] = test: Antitumor activity against human HCC70 cells xenografted in female nu/nu mouse assessed as tumor growth inhibition at 3 mg/kg, po administered once daily and measured for 4 weeks; format: functional; conditions: HCC70, 672 h, read-out: TGI
CDK18/Cyclin Y = CDK18/Cyclin Y (Homo sapiens, UniProt Q07002+Q8ND76); test: Inhibition of CDK18/Cyclin Y (unknown origin); format: protein-complex assay
CDK18/Cyclin Y, sequence (Q07002 whole entry): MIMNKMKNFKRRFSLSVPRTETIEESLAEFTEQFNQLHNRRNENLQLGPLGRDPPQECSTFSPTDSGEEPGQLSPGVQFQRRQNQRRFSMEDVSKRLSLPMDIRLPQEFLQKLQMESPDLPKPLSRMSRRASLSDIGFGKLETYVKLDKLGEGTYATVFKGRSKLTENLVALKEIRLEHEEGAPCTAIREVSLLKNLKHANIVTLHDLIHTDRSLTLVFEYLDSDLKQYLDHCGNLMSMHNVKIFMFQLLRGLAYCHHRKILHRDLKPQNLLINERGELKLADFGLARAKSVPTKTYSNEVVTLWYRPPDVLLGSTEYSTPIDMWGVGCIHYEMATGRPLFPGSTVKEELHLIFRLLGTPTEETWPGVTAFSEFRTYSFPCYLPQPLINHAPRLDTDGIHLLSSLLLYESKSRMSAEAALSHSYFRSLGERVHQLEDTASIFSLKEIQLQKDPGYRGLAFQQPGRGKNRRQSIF
CDK18/Cyclin Y, sequence (Q8ND76 whole entry): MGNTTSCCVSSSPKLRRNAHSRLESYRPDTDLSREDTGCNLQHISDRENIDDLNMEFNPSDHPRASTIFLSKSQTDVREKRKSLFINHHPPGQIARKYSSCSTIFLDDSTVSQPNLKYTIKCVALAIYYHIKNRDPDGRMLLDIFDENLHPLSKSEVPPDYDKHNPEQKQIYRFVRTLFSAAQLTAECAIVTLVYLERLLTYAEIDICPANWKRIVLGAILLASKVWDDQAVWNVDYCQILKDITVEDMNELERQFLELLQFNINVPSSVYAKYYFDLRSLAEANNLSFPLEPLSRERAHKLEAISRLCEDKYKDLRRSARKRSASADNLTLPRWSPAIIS

HCC70 [39] = test: cells; conditions: Homo sapiens, HCC70, 72 h
Description: Antiproliferative activity against human HCC70 cells assessed as inhibition of cell proliferation incubated for 72 hrs by celltiter-glo assay

[40] = target: CDK4/Cyclin D3 (Homo sapiens) (UniProt P11802+P30281); test: Inhibition of CDK4/Cyclin D3 (unknown origin) at 200 nM relative to control; values are per cent of control
OVCAR-3 [41] = test: Antitumor activity against human OVCAR-3 cells xenografted in female Balb/c nude mouse assessed as tumor growth inhibition at 20 mg/kg, po administered once daily and measured on day 22; format: functional; conditions: OVCAR-3, 528 h, time 22 day, read-out: TGI
[42] = AUC (0 to t) in human OVCAR-3 cells xenografted in female Balb/c nude mouse plasma at 20 mg/kg, po administered once daily; format: ADME, organism-based
HCC70 [43] = test: Antitumor activity against human HCC70 cells xenografted in female nu/nu mouse assessed as tumor growth inhibition at 10 mg/kg, po administered once daily and measured for 4 weeks; format: functional; conditions: HCC70, 672 h, read-out: TGI
[44] = Metabolic stability in mouse liver microsomes assessed as intrinsic clearance; format: ADME, Microsome; conditions: read-out: CLH
[45] = target: Mitogen-activated protein kinase 7 (Homo sapiens, UniProt Q13164); test: Inhibition of Erk5 (unknown origin)
Mitogen-activated protein kinase 7, sequence (Q13164 whole entry): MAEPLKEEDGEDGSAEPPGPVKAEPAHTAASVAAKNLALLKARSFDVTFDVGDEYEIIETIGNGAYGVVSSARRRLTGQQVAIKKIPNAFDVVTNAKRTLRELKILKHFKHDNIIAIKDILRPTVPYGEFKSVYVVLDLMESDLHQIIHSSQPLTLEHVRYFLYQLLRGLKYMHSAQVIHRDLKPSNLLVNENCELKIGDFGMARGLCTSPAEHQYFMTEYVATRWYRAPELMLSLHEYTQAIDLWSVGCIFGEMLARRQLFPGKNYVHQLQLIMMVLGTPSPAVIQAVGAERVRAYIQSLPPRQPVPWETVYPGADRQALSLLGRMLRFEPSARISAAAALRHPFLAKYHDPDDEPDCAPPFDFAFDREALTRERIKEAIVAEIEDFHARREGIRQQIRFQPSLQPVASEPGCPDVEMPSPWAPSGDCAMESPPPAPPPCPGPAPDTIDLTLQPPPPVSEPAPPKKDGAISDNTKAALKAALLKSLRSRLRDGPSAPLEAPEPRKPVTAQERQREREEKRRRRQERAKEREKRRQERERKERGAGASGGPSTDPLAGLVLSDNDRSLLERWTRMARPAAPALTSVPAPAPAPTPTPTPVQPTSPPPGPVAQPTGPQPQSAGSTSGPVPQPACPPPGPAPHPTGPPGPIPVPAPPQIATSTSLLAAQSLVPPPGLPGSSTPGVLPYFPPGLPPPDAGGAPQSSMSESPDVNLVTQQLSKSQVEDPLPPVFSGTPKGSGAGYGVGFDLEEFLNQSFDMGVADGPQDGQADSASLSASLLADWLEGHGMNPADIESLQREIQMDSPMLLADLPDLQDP

Mus musculus = test: In vivo inhibition of CDK2 phosphorylation in human HCC70 cells xenografted in female Balb/c nude mouse administered once daily for 7 days; format: functional, organism-based; conditions: dose 2-10 mg/kg, time 7.0 day

CN1CC(F)(F)CCN(C)[C@H]2CC[C@@H](C2)Nc2ncc(C(F)(F)F)c(n2)-c2c[nH]c3c(P(C)(C)=O)c(ccc23)C1=O
residual activity [1]: 0.8%
IC50 (Cytochrome P450 3A4): 5200 nM
IC50 [2]: 7.9 nM
AUC(0-t) [3]: 315 ng·h/mL
AUC(0-t) [4]: 415 ng·h/mL
AUC(0-t) [5]: 1720 ng·h/mL
IC50 (Cytochrome P450 1A2): > 50000 nM
IC50 [6]: 23.7 nM
inhibition in vivo at 2 mg/kg (OVCAR-3 [7]): 110%
concentration at 0.5 h [8]: 33.9 ng/mL
half-life [9]: 1.2 h
AUC(0-t) [10]: 3070 ng·h/mL
half-life [11]: 1.7 h
IC50 (Cytochrome P450 2D6): 7000 nM
concentration at 0.5 h [12]: 2240 ng/g
AUC(0-t) [13]: 14200 ng·h/mL
bioavailability [14]: 78.7%
bioavailability [15]: 78.7%
inhibition in vivo at 1 mg/kg (HCC70 [16]): 35.5%
half-life [17]: 4.3 h
IC50 [18]: 2.8 nM
Cmax [19]: 3310 ng/mL
Cmax [20]: 214 ng/mL
residual activity [21]: 24%
IC50 [22]: 258 nM
AUC(0-t) [23]: 329 ng·h/mL
IC50 [24]: 291 nM
half-life [25]: 4.4 h
Cmax [26]: 355 ng/mL
half-life [27]: 4.3 h
Kd [28]: 0.18 nM
IC50 [29]: 45.2 nM
Cmax [30]: 580 ng/mL
Cmax [31]: 6620 ng/mL
AUC(0-t) [32]: 203 ng·h/mL
concentration at 2 h [33]: 68.8 ng/mL
half-life [34]: 3.4 h
AUC(0-t) [35]: 44600 ng·h/mL
fraction unbound [36]: 0.043
CLint scaled [37]: 19.6 mL/min/kg
inhibition in vivo at 3 mg/kg (HCC70 [38]): 120%
IC50 (CDK18/Cyclin Y): 4.2 nM
IC50 (HCC70 [39]): 24.6 nM
residual activity [40]: 17%
inhibition in vivo at 20 mg/kg (OVCAR-3 [41]): 111%
AUC(0-t) [42]: 3940 ng·h/mL
inhibition in vivo at 10 mg/kg (HCC70 [43]): 175%
CLint scaled [44]: 84.3 mL/min/kg
IC50 [45]: 26.5 nM
Activity (Mus musculus): Dose-dependent-effect
